According to patent US11208412B2 (DAEGU-GYEONGBUK MEDICAL INNOVATION FOUNDATION, priority 2017, dated 2021):
Where two headings read alike, the source gives them in different places.

Tests used:
Assay in all cases: Kinase selectivity, DiscoverX scanMAX Kinase assay panel (% control)
Format in all cases: binding
[1] = target: T1, kinases of the scanMAX Kinase assay panel (Homo sapiens, UniProt O75716); conditions: kinase STK16; 1 uM in DMSO
T1 construct: purchased DiscoverX Co. (contract measurement) scanMAX Kinase assay panel
T1 sequence (O75716 whole entry): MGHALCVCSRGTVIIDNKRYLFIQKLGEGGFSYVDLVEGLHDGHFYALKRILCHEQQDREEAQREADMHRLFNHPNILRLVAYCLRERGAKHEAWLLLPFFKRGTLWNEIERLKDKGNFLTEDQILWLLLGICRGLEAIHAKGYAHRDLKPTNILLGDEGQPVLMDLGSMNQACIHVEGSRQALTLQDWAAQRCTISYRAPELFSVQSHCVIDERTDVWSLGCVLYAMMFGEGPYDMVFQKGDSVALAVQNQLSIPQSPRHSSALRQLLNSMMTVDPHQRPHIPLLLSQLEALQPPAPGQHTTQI
In short: (§1)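 Single-point screen, 1 uM cpd in DMSO. % ctrl = (cpd − pos ctrl)/(neg ctrl − pos ctrl)×100; pos ctrl = 0%, DMSO neg ctrl = 100%. Hit cutoff <35%.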

[2] = target: T2, kinases of the scanMAX Kinase assay panel (Homo sapiens, UniProt P51956); conditions: NEK3; 1 uM
T2 construct: purchased DiscoverX Co. (contract measurement) scanMAX Kinase assay panel
T2 sequence (P51956 1-506): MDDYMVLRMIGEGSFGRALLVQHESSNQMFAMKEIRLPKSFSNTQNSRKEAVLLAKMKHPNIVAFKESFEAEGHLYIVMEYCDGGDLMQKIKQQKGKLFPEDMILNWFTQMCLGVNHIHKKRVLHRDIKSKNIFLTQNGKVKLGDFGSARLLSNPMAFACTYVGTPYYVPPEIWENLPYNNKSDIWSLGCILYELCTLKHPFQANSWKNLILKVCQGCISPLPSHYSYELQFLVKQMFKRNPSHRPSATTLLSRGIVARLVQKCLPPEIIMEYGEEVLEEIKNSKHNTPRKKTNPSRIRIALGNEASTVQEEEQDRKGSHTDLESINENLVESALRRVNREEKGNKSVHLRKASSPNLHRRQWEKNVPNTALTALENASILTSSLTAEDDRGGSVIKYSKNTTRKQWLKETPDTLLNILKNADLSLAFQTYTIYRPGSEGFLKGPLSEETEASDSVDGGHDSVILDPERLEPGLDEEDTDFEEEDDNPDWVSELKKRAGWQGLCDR
In short: as §1

[3] = target: T3, kinases of the scanMAX Kinase assay panel (Homo sapiens, UniProt Q99558); conditions: NIK; 1 uM
T3 construct: purchased DiscoverX Co. (contract measurement) scanMAX Kinase assay panel
T3 sequence (Q99558 whole entry): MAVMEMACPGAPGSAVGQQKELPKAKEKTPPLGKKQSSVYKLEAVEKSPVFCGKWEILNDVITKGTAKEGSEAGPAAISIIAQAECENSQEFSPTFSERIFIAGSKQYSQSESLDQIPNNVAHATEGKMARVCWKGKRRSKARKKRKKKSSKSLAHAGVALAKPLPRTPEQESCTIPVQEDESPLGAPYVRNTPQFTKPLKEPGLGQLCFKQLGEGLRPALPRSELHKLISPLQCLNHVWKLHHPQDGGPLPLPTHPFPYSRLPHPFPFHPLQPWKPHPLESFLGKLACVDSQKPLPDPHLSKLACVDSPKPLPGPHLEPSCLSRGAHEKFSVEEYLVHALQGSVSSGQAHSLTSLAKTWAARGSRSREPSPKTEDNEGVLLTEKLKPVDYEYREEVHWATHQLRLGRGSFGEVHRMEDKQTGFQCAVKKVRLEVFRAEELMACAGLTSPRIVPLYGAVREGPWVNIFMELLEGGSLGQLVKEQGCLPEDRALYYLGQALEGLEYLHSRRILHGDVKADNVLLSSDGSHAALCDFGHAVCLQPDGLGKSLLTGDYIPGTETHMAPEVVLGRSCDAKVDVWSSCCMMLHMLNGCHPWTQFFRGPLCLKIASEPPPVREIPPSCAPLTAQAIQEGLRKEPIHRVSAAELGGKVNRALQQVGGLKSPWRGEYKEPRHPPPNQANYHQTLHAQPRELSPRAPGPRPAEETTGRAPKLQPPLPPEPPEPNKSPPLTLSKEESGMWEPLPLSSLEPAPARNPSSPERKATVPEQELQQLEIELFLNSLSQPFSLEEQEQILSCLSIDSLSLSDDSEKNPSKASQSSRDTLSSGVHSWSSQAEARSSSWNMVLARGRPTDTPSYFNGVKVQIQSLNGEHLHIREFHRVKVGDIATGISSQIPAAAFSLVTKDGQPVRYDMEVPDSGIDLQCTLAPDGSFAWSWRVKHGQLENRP
In short: as §1

[4] = target: T4, kinases of the scanMAX Kinase assay panel (Homo sapiens, UniProt P00533, L858R); conditions: EGFR(L858R); 1 uM
T4 construct: purchased DiscoverX Co. (contract measurement) scanMAX Kinase assay panel
In short: as §1

[5] = target: T5, kinases of the scanMAX Kinase assay panel (Homo sapiens, UniProt Q15349); conditions: 1 uM in DMSO
T5 construct: purchased DiscoverX Co. (contract measurement) scanMAX Kinase assay panel
T5 sequence (Q15349 whole entry): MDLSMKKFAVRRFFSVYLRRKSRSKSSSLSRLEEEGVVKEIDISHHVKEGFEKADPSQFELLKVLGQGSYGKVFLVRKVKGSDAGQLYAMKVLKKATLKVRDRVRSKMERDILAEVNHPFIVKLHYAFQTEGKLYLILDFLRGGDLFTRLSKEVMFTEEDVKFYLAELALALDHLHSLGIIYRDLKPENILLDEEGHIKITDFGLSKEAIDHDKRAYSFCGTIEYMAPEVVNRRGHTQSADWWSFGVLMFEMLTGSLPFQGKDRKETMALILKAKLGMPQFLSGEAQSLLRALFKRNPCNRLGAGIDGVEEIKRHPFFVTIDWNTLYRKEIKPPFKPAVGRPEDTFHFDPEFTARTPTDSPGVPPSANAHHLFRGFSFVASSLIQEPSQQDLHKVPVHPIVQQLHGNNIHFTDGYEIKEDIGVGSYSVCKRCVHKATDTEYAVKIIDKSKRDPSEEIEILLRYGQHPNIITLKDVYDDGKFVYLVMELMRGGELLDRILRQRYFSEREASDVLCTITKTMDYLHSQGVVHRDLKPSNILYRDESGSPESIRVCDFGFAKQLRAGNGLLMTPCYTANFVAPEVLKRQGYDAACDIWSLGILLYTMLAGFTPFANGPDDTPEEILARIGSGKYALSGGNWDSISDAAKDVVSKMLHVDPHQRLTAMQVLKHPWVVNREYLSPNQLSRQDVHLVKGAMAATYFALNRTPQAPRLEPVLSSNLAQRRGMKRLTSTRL
In short: as §1

[6] = target: T6, kinases of the scanMAX Kinase assay panel (Plasmodium falciparum, UniProt P62344); conditions: PFCDPK1(P. falciparum); 1 uM
T6 construct: purchased DiscoverX Co. (contract measurement) scanMAX Kinase assay panel
T6 sequence (P62344 whole entry): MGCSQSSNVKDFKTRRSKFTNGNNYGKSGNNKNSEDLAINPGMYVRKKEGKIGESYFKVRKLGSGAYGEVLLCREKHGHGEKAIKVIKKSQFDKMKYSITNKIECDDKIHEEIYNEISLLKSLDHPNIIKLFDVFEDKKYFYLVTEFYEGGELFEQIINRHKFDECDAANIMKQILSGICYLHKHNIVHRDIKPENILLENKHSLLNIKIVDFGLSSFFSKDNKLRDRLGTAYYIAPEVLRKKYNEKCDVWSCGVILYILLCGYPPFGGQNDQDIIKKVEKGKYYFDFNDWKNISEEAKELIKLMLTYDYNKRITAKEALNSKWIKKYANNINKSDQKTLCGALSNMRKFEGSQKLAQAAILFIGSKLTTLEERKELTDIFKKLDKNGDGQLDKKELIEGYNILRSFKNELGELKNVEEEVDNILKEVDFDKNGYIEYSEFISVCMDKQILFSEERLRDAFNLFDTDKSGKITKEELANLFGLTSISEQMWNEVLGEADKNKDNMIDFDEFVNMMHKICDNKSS
In short: as §1

[7] = target: T7, kinases of the scanMAX Kinase assay panel (Homo sapiens, UniProt P42336, M1043I); conditions: PIK3CA(M1043I); 1 uM
T7 construct: purchased DiscoverX Co. (contract measurement) scanMAX Kinase assay panel
In short: as §1

[8] = target: T8, kinases of the scanMAX Kinase assay panel (Homo sapiens, UniProt P50750); conditions: CDK9; 1 uM
T8 construct: purchased DiscoverX Co. (contract measurement) scanMAX Kinase assay panel
T8 sequence (P50750 whole entry): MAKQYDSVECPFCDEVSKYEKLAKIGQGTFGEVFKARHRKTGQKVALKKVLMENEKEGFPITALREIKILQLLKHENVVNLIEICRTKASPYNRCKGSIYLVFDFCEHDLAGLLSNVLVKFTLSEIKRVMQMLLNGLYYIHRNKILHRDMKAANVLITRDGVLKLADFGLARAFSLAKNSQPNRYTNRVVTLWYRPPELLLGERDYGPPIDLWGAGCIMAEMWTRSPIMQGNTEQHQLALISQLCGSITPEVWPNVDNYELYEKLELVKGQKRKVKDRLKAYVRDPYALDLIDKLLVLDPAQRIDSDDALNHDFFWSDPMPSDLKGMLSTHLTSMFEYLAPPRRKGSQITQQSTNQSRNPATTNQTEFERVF
In short: as §1

[9] = target: T9, kinases of the scanMAX Kinase assay panel (Homo sapiens, UniProt Q00532); conditions: CDKL1; 1 uM
T9 construct: purchased DiscoverX Co. (contract measurement) scanMAX Kinase assay panel
T9 sequence (Q00532 whole entry): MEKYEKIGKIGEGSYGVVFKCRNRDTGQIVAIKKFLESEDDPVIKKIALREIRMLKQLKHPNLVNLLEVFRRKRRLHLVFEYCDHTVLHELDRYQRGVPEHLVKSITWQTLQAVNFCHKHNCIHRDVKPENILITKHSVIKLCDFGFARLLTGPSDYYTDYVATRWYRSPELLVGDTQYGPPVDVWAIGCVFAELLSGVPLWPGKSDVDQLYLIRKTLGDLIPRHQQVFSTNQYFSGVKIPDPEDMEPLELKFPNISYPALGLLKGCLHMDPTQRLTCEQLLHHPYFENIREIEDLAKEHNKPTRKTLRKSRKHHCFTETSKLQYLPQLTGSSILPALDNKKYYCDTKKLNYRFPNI
In short: as §1

[10] = target: T10, kinases of the scanMAX Kinase assay panel (Homo sapiens, UniProt P06241); conditions: FYN; 1 uM
T10 construct: purchased DiscoverX Co. (contract measurement) scanMAX Kinase assay panel
T10 sequence (P06241 whole entry): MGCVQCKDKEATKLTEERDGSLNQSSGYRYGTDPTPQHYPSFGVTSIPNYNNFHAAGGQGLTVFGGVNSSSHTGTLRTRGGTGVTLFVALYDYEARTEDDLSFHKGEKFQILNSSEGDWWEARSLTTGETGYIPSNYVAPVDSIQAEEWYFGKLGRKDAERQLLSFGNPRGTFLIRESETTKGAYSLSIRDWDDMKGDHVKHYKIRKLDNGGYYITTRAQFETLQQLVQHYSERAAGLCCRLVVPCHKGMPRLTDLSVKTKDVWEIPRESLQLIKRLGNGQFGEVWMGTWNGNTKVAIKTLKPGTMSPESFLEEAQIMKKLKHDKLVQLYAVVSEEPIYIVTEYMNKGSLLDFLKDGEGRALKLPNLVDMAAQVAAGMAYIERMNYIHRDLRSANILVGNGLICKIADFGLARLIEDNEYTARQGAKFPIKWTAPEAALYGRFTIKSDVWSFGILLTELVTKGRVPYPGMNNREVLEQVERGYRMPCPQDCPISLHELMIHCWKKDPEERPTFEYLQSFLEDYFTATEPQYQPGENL
In short: as §1

[11] = target: T11, kinases of the scanMAX Kinase assay panel (Homo sapiens, UniProt Q15375); conditions: EPHA7; 1 uM
T11 construct: purchased DiscoverX Co. (contract measurement) scanMAX Kinase assay panel
T11 sequence (Q15375 28-998): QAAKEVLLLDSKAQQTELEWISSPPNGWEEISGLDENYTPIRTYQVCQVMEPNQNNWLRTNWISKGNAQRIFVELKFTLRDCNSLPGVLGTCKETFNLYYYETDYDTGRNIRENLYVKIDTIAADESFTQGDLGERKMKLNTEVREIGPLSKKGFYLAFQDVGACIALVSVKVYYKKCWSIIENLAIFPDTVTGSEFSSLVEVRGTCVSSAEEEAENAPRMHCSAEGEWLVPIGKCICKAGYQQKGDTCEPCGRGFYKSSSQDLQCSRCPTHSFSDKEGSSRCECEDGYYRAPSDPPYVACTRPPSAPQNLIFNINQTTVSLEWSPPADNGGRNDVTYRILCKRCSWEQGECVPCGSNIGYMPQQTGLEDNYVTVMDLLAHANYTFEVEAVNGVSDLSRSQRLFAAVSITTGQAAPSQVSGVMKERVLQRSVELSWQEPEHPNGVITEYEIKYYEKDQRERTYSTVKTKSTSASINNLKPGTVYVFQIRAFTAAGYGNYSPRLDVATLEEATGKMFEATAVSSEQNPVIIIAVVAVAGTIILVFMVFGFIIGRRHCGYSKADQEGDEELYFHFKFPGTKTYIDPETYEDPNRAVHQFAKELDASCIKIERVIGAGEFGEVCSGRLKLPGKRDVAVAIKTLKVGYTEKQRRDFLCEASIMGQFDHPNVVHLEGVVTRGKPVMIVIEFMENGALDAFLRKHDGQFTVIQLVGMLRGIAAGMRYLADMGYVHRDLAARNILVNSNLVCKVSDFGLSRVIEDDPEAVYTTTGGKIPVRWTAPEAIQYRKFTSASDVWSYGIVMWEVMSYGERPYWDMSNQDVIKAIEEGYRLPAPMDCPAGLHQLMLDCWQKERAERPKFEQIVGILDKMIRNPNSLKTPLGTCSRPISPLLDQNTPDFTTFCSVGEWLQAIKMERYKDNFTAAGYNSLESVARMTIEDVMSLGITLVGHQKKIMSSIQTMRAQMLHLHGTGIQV
In short: as §1

[12] = target: T12, kinases of the scanMAX Kinase assay panel (Homo sapiens, UniProt Q8IWQ3); conditions: BRSK2; 1 uM
T12 construct: purchased DiscoverX Co. (contract measurement) scanMAX Kinase assay panel
T12 sequence (Q8IWQ3 1-736): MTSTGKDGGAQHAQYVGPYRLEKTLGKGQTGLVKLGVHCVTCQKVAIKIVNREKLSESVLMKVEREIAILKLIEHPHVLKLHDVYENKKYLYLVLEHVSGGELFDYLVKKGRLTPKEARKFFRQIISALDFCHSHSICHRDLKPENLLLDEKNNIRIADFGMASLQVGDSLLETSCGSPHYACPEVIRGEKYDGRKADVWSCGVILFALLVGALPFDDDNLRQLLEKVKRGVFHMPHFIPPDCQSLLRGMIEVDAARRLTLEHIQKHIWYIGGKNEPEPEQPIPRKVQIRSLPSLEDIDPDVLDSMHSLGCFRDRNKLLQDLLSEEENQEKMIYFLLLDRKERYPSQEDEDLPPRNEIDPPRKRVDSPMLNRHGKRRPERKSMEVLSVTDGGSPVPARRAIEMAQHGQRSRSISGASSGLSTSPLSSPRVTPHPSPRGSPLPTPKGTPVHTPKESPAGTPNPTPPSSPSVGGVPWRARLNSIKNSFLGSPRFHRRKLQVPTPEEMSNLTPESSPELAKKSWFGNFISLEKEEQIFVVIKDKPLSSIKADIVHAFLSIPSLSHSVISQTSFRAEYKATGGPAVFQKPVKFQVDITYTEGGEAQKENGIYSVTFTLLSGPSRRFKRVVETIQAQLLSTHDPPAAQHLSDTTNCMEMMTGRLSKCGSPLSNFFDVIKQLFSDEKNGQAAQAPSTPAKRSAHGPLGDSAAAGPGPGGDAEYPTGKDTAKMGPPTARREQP
In short: as §1

[13] = target: T13, kinases of the scanMAX Kinase assay panel (Homo sapiens, UniProt P00533, L858R/T790M); conditions: EGFR(L858R, T790M); 1 uM
T13 construct: purchased DiscoverX Co. (contract measurement) scanMAX Kinase assay panel
In short: as §1

[14] = kinase RSK3(Kin.Dom.1-N-terminal), read-out: % control, RSK3(Kin.Dom.1-N-terminal)
[15] = kinase RSK3(Kin.Dom.2-C-terminal), read-out: % control, RSK3(Kin.Dom.2-C-terminal)

SMILES	remaining binding at 1 µM [1]	remaining binding at 1 µM [2]	remaining binding at 1 µM [3]	remaining binding at 1 µM [4]	remaining binding at 1 µM [5, 14]	remaining binding at 1 µM [5, 15]	remaining binding at 1 µM [6]	remaining binding at 1 µM [7]	remaining binding at 1 µM [8]	remaining binding at 1 µM [9]	remaining binding at 1 µM [10]	remaining binding at 1 µM [11]	remaining binding at 1 µM [12]	remaining binding at 1 µM [13]
CNc1nc(Nc2ccc(C(=O)N3CCOCC3)cc2OC)nc2[nH]cc(C#N)c12 [Example 1, 2-((2-methoxy-4-(morpholine-4-carbonyl)phenyl)amino)-4-(methylamino)-7H-pyrrolo[2,3-d]pyrimidine-5-carbonitrile]	74%	70%	3.7%	96%	90%	23%	87%	94%	96%	89%	100%	97%	89%	54%
CC1(Nc2nc(Nc3cnn([C@H]4CCN(C5COC5)C[C@@H]4F)c3Cl)nc3[nH]cc(C#N)c23)CC1 [Example 52, 2-((5-chloro-1-((3S,4S)-3-fluoro-1-(oxetane-3-yl)piperidine-4-yl)-1H-pyrazole-4-yl)amino)((1-methylcyclopropyl)amino)-7H-pyrrolo[2,3-d]pyrimidine-5-carbonitrile]	0.35%	96%	7.4%	41%	4.3%	28%	52%	37%	84%	46%	19%	20%	70%	2.3%
CCNc1nc(Nc2ccc(C(=O)N3CCC(N4CCOCC4)CC3)cc2OC)nc2[nH]cc(C(F)(F)F)c12 [Example 104, (4-((4-(ethylamino)-5-(trifluoromethyl)-7H-pyrrolo[2,3-d]pyrimidine-2-yl)amino)-3-methoxyphenyl)(4-morpholinopiperidine-1-yl)methanone]	69%	82%	16%	89%	100%	66%	100%	84%	100%	88%	100%	94%	100%	55%
